Key:
Type in all cases: biochemical
[1] = molecular target: T1, phosphorylated VEGF-R2Δ50 (FLVK-P) (Homo sapiens, UniProt P35968, DEL940-989/E990V); experiment: VEGF-R2 coupled spectrophotometric (FLVK-P) assay; conditions: Table 2; spectrophotometric assay
T1 construct: VEGF-R2Δ50 contains residues 806-939 and 990-1171; made in house; host or cells: baculovirus/insect cells
Summary of the method: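 Baculovirus-expressed human VEGF-R2Δ50 (residues 806-939/990-1171, E990V) was autophosphorylated with 3 mM ATP, 40 mM MgCl2 for 2 h at 4° C. ADP formation was coupled via PK/LDH to NADH oxidation, read at 340 nm, with 5.1 mM poly(E4Y1), 1 mM ATP, 25 mM MgCl2, Hepes pH 7.5. Ki came from activity across compound concentrations.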

CDK2/Cyclin A complex = CDK2/Cyclin A complex (Homo sapiens, UniProt P24941); experiment: CDK2/Cyclin A assay; conditions: Table 2
Summary of the method: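 Radiometric assay: 150 nM CDK2/cyclin A (insect-cell CDK2, truncated cyclin A) phosphorylates His-tagged Rb fragment (residues 386-928) with 25 μM ATP plus [32P]ATP, pH 7.4 HEPES, 2% DMSO, 30 °C for 20 min. Filter-captured product counted by phosphorimager; apparent Ki from competitive or tight-binding inhibition fits.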

CDK4/Cyclin D3 complex = molecular target: T2, CDK4/Cyclin D3 complex (Homo sapiens, UniProt P11802); experiment: CDK4/Cyclin D assay; conditions: Table 2
T2 construct: made in house; host or cells: insect cells co-infected with baculovirus vectors
Summary of the method: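 Insect-cell-expressed CDK4/cyclin D3 (50 nM) phosphorylating His-tagged Rb fragment (residues 386-928) with 25 μM [^32P]ATP in HEPES pH 7.4, MgCl2, 2% DMSO; 20 min at 30 °C, EDTA stop. Filter-captured 32P by phosphorimager; apparent Ki from competitive or tight-binding inhibition fits.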

T1 sequence (P35968 with tags, fused parts or gaps DEL940-989/E990V limits assumed): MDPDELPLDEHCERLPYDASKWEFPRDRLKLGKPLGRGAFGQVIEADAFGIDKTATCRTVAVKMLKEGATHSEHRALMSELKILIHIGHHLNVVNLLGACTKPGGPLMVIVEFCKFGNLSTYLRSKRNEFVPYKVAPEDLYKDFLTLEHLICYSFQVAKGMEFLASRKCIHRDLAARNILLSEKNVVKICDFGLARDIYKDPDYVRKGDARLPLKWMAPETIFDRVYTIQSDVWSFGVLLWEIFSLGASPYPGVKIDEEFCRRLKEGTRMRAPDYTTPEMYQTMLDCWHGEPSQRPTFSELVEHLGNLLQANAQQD
T2 sequence (P11802 whole entry): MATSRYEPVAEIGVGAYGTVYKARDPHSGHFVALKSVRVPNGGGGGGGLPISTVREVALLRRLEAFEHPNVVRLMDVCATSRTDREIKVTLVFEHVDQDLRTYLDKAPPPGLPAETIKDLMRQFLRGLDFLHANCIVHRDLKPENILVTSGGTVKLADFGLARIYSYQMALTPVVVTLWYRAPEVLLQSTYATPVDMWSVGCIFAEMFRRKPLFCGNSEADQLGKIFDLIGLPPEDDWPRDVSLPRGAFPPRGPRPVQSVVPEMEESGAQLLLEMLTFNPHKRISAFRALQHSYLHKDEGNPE
T2 sequence (P30281 whole entry partner): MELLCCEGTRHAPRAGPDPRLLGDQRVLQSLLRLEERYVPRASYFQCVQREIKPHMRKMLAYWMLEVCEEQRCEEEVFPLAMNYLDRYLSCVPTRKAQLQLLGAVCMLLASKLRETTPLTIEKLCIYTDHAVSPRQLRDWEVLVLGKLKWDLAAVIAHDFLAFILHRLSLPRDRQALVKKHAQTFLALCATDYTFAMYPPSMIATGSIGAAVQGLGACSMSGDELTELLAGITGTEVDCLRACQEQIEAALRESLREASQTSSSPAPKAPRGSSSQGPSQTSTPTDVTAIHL

Ki [1] [µM]	Ki (CDK2/Cyclin A complex) [µM]	Ki (CDK4/Cyclin D3 complex) [µM]	SMILES
0.003	2.1	29	COc1cc(Nc2nc(N)c(-c3nc(-c4cccc(O)c4)cs3)s2)cc(OC)c1OC [A(17), 3-[4′-Amino-2′-(3,4,5-trimethoxy-phenylamino)-[2,5′]bithiazolyl-4-yl]-phenol]
0.078	6.4	13	CCCNc1nc(N)c(-c2nc(-c3cccc(O)c3)cs2)s1 [A(29), 3-(4′-Amino-2′-propylamino-[2,5′]bithiazolyl-4-yl)-phenol]
0.006	0.62	6.7	COc1cc(Nc2nc(N)c(-c3nc(-c4cccc(O)c4)no3)s2)cc(OC)c1OC [K(1), 3-{5-[4-Amino-2-(3,4,5-trimethoxy-phenylamino)-thiazol-5-yl]-[1,2,4]oxadiazol-3-yl}-phenol]

— patent publication US6620828B2, “Thiazole compounds and pharmaceutical compositions for inhibiting protein kinases and methods for their use” (Agouron Pharmaceuticals, Inc., priority 1999, dated 2003)
